Non-standard residues stand in square brackets, D forms with d. Residues, ends and D or L forms follow the SMILES beside them. No end group written: not given here. *: point of attachment. 4Abz = Nc1ccc(C(=O)O)cc1; NHOH = ON*
Key:
[1] = target: MMP-8 (Homo sapiens, UniProt P22894); settings: cited from earlier work
[2] = target: T1, MMP-1 (Cavia porcellus, UniProt H0V812); assay: Collagen zymography of arterial clots from FeCl3-injured carotid arteries; assay type: in vivo, guinea pig
T1 construct: endogenous in cells; host or cells: platelets of Hartley guinea pigs
Experimental: MMP-1 activity with the dots was determined by collagent zymography (see FIG. 6H). Platelets were isolated from guinea pigs and stimulated with 20 μg/ml collagen for 15 min and platelet supernatants and pellets, or whole resting platelets (control), prepared as described Above. Samples were resolved on a 8% type I collagen/acrylamide zymography gel and collagenase zymogram was developed as described by (Gogly et al., 1998) or immunoblotted with MMP1-Ab, AB806. Arterial dots were also removed from the Fe—Cl irnjured carotid arteries from animals (n=5) treated with FN-439 (FN439 clot) or vehicle (veh dot) as in 6F and 6G and dots were dissolved in lysis buffer and passed 5× through a 21-gauge needle. The lysates were centrifuged and supernatents resolved on the zymography gel. The two lanes on the left side of the western blot have 20 ng of proMMP-1 or 20 ng APMA-activated MMP-1, and the right hand lane in the zymogram has 0.5 μg of APMA-activated human MMP-1.

[3] = target: MMP-9 (Homo sapiens, UniProt P14780); settings: cited from earlier work
[4] = target: T1, MMP-1; assay: Collagenase activity released from collagen-treated guinea pig platelets; assay type: biochemical; settings: 20 μg/ml collagen; 3 μM FN-439 or 20 μg/ml Ab
Experimental: Animal experiments were performed in accordance with the National Institutes of Health guidelines and approved by the Tufts Medical Center Institutional Animal Care and Use Committee. 2-4 week old Hartley guinea pigs (170-260 g) were anesthetized by an i.p. injection of xylazine (10 mg/kg) plus ketamine (50 mg/kg) and then catheterized via the left jugular vein and injected (200 μL) with either vehicle (20% DMSO/80% water), P1pal-7 or FN-439. For determination of collagen-dependent systemic platelet activation, 10 min after administration of inhibitors, 200 μg collagen in 200 μL of PBS was delivered via the jugular vein. Ten min after collagen injection, blood was collected into sodium citrate (1% v/v final) from the contralateral jugular vein and platelet counts were measured with a Hemavet850. The enzymatic activity of active MMP-1 in supernatants and platelet lysates was determined using DQ collagen I as fluorogenic substrate in the presence or absence of 3 μM FN-439, or 20 μg/ml of control IgG or a MMP-1 blocking Ab (preincubated for 2 h at 37° C.), as indicated.
Dashed grey line: secondary antibody alone; Solid lines: FACS profiles of platelets treated with the indicated concentrations of collagen for 15 min at 37° C. and then stained with primary MMP-1 (AB806) plus secondary antibodies.

[5] = tested on: platelets; assay: Collagen-dependent aggregation of gel-filtered human platelets (light transmittance); assay type: cell-based; settings: 5 μg/ml collagen; 1,10-PA 100 μM, MMP-200 200 nM, FN-439 3 μM, RWJ-56110 1 μM, PAR1 Ab 75 μg/ml, pepducins 3 μM, PPACK 200 μM, hirudin 1 U/ml
Experimental: Platelet pellets and their supernatants were prepared as follows. […] following established informed consent procedures. […] Alternatively, whole blood was obtained from Hartley Sprague guinea pigs (drawn from the vena cava) into 3% citrate plus 10 U/ml heparin. Washed platelets from the guinea pigs were prepared in PIPES buffer. Platelet aggregation was measured with a Chronolog 560VS/490-2D aggregometer using modified PIPES buffer as a blank. Samples were incubated for 5 min in the presence of inhibitors and 1.8 mM CaCl2 prior to addition of agonist. All reactions were in final volumes of 250 μl at 37° C. while stirring at 900 rpm.
The effect of pharmacologic blockage of metalloproteases or PAR1 on collagen-dependent platelet aggregation was then tested (see FIG. 5). Gel-filtered platelets from healthy individuals (supplemented with 0.3 mg/ml fibrinogen) were challenged with 5 μg/ml collagen in the presence or absence (0.2% DMSO vehicle) of the indicated inhibitors and allowed to stir at 900 rpm in an aggregometer cuvette (250 μL) at 37° C.
In FIG. 5A, platelet aggregation was monitored by light transmittance.

[6] = tested on: PAR1; assay: P1pal-7 ammonium acetate salt: IC50 and PAR1 specificity (test not described); settings: ammonium acetate salt of P1pal-7 in 100% water

T1 sequence (H0V812 1-472): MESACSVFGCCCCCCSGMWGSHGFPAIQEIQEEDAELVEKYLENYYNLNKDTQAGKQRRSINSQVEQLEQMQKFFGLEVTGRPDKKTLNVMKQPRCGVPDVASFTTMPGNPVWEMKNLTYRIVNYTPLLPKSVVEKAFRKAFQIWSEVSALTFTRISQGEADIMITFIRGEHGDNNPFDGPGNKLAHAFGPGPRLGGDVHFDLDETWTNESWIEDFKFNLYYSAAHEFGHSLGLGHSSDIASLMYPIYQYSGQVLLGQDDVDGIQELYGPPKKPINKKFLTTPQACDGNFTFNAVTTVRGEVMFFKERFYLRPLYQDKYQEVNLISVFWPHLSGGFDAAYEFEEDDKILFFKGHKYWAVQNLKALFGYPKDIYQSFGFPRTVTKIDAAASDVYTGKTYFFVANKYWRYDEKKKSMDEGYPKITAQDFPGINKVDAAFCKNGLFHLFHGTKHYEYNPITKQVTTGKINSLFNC
Chain of MMP-8 (P22894 101-467, species assumed): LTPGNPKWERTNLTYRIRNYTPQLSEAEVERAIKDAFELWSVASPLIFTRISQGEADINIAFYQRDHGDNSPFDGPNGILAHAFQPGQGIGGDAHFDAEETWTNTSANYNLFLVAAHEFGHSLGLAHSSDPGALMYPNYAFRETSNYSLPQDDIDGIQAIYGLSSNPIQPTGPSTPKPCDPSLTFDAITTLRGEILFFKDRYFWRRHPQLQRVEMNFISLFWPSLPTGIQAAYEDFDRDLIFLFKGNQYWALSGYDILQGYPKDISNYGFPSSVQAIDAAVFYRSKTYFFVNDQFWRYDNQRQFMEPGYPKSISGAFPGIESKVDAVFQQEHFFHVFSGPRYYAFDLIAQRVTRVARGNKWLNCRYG
Chain of MMP-9 (P14780 94-707, species assumed): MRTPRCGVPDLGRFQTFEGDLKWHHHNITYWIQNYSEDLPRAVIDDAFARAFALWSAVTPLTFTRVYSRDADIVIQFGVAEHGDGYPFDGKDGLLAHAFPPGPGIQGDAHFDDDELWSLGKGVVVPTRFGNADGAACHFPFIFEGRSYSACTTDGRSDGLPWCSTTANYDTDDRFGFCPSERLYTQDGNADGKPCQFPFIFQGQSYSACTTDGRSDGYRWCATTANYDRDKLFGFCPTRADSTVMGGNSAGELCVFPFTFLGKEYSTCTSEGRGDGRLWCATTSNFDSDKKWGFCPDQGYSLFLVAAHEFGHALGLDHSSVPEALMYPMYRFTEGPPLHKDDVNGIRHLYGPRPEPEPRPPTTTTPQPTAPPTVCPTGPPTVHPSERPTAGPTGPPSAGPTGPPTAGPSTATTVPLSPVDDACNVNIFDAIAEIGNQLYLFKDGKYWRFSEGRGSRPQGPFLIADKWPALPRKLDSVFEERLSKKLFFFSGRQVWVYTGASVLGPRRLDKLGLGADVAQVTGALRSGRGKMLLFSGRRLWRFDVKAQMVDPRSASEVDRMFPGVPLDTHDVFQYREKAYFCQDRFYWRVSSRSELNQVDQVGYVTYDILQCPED

Row | Compound | IC50 [1] [µM] | active MMP-1 in arterial thrombi of treated animals [2] | IC50 [3] [µM] | block of collagenase activity released by collagen from guinea pig platelets [4] | inhibition (loss) of collagen-induced platelet aggregation [5] | specificity for PAR1 [6]
1 | CC(C)C[C@@H](NC(=O)[C@@H]1CCCN1C(=O)CNC(=O)c1ccc(N)cc1)C(=O)N[C@H](C)C(=O)NO [FN-439] (H-[4Abz]GP[dL][dA]-{NHOH}) | 1 | did not contain active MMP-1 | 30 | completely blocked | – | –
2 | P1pal-7: PAR1 i3 loop pepducin lipopeptide, KKSRALF (SEQ ID NO. 2), palmitate (also: palmitate, site not given here) | – | – | – | – | identical levels of inhibition as blocking MMP-1 | retains specificity for PAR1
